Laboratory results published in patent publication US20240197695A1, “COMPOUND FOR PREVENTION OR TREATMENT OF KIDNEY DISEASE” (ONCOCROSS CO.,LTD, priority 2021, published 2024).
Where two headings read alike, the source gives them in different places. Marks after values point to notes of the source that are not given here.

How the values were obtained:
Assay type in all cases: in vivo, mice (C57BL/6)
[1] = system: diabetic nephrosis animal models; experiment: Blood indoxyl sulfate by LC MS/MS; settings: after observation period, fasted
Experimental: (§1) STZ (Sigma-aldrich, S0130, 40 mg/kg b.w., in 0.1 M citrate buffer pH 4.5) was intraperitoneally administered to 9-week-old male mice (C57BL/6) once/1 day for 5 days to perform a first disease induction. After 7 weeks of the first induction, a second induction was performed using the same method as the first induction. For 5 days of an STZ administration period for the first induction, 10% sucrose was administered as drinking water. In addition, after 14 days of the second administration, blood glucose levels were confirmed to confirm the induction rate, and the induced animals were separated into groups. Experimental substances (R)-4-{(R)-1-[7-(3,4,5-trimethoxy-phenyl)-[1,6] naphthyridin-5-yloxy]-ethyl}pyrrolidin-2-one (BI-1002494) and cromolyn (OC-101) were administered orally into the stomach at 10 mL/kg using an administration syringe (sonde) before 16:00 daily for 12 weeks at a frequency of 7 days/week at doses shown in Table 1 below, and dexamethasone was orally administered as a positive control substance.
(§2) After the observation period for mice of each group in Example 1 was terminated, all surviving animals were fasted in the same manner as when measuring blood glucose levels, and then anesthetized by inhaling isoflurane, and blood was collected from the abdominal vena cava through laparotomy. After the blood collection was completed, the veins and arteries were cut under anesthesia and exsanguinated. The collected blood was left at room temperature for 30 minutes or more and then centrifuged at 3,000 rpm for 20 minutes. Thereafter, glucose, Blood urea nitrogen (BUN), and creatinine were analyzed using an automated blood biochemistry analyzer (Hitachi 3100, Hitachi Co. Ltd., Japan). Indoxyl sulfate (a substance that was mainly produced in the intestines to cause renal injury, and a substance that caused end-stage renal failure by advancing renal function damage in patients with renal failure during hemodialysis) was analyzed using LC MS/MS. In addition, blood insulin was analyzed according to a method represented by a commercial Mouse Insulin ELISA KIT (#AKRIN-011T, Sibayagi Co. Ltd., Japan).

[2] = Feed intake of mice in diabetic nephrosis model; parameters: Feed intake, Mean: unit not given here
Experimental: as §1

[3] = system: diabetic nephrosis animal models; experiment: Histopathological change (H&E) in liver, kidney, pancreas; settings: count in group of 10 animals
Experimental: as §1
At the end of the observation period, the mice in each group of Example 1 were confirmed to be dead, and the liver, kidney, and pancreas were extracted and fixed with 10% neutral buffered formalin (NBF) in at least 20 times the tissue volume. The fixed tissue was sectioned to a thickness of approximately 4 mm and then produced into a paraffin block through general tissue processing and embedding processes. Thereafter, the tissue was sectioned to a thickness of 4 μm using a rotary microtome, and then H&E staining was performed, and histopathological changes were observed.

[4] = system: diabetic nephrosis animal models; experiment: Blood insulin (Mouse Insulin ELISA KIT) and HOMA-IR; settings: for HOMA-IR, Mean / Insulin, Mean: after observation period, fasted
Experimental: as §1, §2

[5] = system: diabetic nephrosis animal models; settings: for CRE, Mean / GLU, Mean / T-CHO, Mean: after observation period, fasted
Experimental: as §1, §2

[6] = system: diabetic nephrosis animal models; experiment: Changes in blood glucose levels (tail vein, blood glucose level meter)
Experimental: as §1
Before disease induction, excluding week 9 of administration of experimental substances to mice in each group of Example 1 above, after 2 weeks after the first induction (based on a first administration date), and after 6 weeks and 2 weeks of the second induction (based on the first administration date), blood was collected from the tail vein and blood glucose levels were measured using a blood glucose level meter (Accu-Check, Roche), and fasting was performed for 4 hours from 9:30 a.m. to 1:30.

[7] = Body weights of mice in diabetic nephrosis model
Experimental: as §1

[8] = Drinking water intake of mice in diabetic nephrosis model; parameters: unit not given here
Experimental: as §1

## C[C@@H]1C[C@H]2[C@@H]3CCC4=CC(=O)C=C[C@]4(C)[C@@]3(F)[C@@H](O)C[C@]2(C)[C@@]1(O)C(=O)CO [Dexa, dexamethasone, reference compound]
[1]; 2 mg/kg/day oral
  Indoxyl sulfate, Mean: 2.5^# μg/mL
[2]; 2 mg/kg/day oral, week 0
  Feed intake, Mean: 6.71
[2]; 2 mg/kg/day oral, week 1
  Feed intake, Mean: 5.48
[2]; 2 mg/kg/day oral, week 2
  Feed intake, Mean: 5.80
[2]; 2 mg/kg/day oral, week 3
  Feed intake, Mean: 5.84
[2]; 2 mg/kg/day oral, week 4
  Feed intake, Mean: 5.89
[2]; 2 mg/kg/day oral, week 5
  Feed intake, Mean: 5.65
[2]; 2 mg/kg/day oral, week 6
  Feed intake, Mean: 5.30
[2]; 2 mg/kg/day oral, week 7
  Feed intake, Mean: 5.56
[2]; 2 mg/kg/day oral, week 8
  Feed intake, Mean: 5.21
[2]; 2 mg/kg/day oral, week 9
  Feed intake, Mean: 5.29
[2]; 2 mg/kg/day oral, week 10
  Feed intake, Mean: 5.64
[3]; G3, 2 mg/kg oral
  Kidney: Medullar apoptosis: 1
  Kidney: Medullar mineralization: 1
  Kidney: NHL: 6
  Kidney: bowman's capsule hyperplasia: 2
  Kidney: pappillary mineralization: 0
  Liver: Apoptosis: 4
  Liver: Cytoplasmic glycogen: 0
  Liver: Eosinophlic focus of cellular alteration: 3
  Liver: Mononuclear cell infiltrate: 0
  Liver: NHL: 5
  Pancrease: Apoptosis: 0
  Pancrease: NHL: 8
  Pancrease: islet degeneration: 1
  Pancrease: islet hypertrophy: 0
  Pancrease: islet, mononuclear cell infillitrate: 1
[4]; 2 mg/kg/day oral
  HOMA-IR, Mean: 11.2^#
  Insulin, Mean: 0.6 ng/mL
[5]; 2 mg/kg/day oral
  CRE, Mean: 0.1 mg/dL
  GLU, Mean: 335.6^# mg/dL
  T-CHO, Mean: 139.0 mg/dL
[6]; 2 mg/kg/day oral, week 0, 4 h fasting, in mg/dL (unit assumed)
  Blood glucose level, Mean: 307.1
[6]; 2 mg/kg/day oral, week 2, 4 h fasting, in mg/dL (unit assumed)
  Blood glucose level, Mean: 309.1
[6]; 2 mg/kg/day oral, week 4, 4 h fasting, in mg/dL (unit assumed)
  Blood glucose level, Mean: 329.2
[6]; 2 mg/kg/day oral, week 6, 4 h fasting, in mg/dL (unit assumed)
  Blood glucose level, Mean: 336.9
[6]; 2 mg/kg/day oral, week 8, 4 h fasting
  Blood glucose level, Mean: 286.1^#
[6]; 2 mg/kg/day oral, week 10, 4 h fasting, in mg/dL (unit assumed)
  Blood glucose level, Mean: 331.4
[7]; 2 mg/kg/day oral, week 0
  Body weight, Mean: 24 g
[7]; 2 mg/kg/day oral, week 1
  Body weight, Mean: 23.5 g
[7]; 2 mg/kg/day oral, week 2
  Body weight, Mean: 23.6 g
[7]; 2 mg/kg/day oral, week 3
  Body weight, Mean: 23.6 g
[7]; 2 mg/kg/day oral, week 4
  Body weight, Mean: 23.6 g
[7]; 2 mg/kg/day oral, week 5
  Body weight, Mean: 23.7 g
[7]; 2 mg/kg/day oral, week 6
  Body weight, Mean: 23.6 g
[7]; 2 mg/kg/day oral, week 7
  Body weight, Mean: 23.8 g
[7]; 2 mg/kg/day oral, week 8
  Body weight, Mean: 23.6 g
[7]; 2 mg/kg/day oral, week 10
  Body weight, Mean: 23.3 g
[8]; 2 mg/kg/day oral, week 0
  Drinking water intake, Mean: 7.07
[8]; 2 mg/kg/day oral, week 1
  Drinking water intake, Mean: 7.73
[8]; 2 mg/kg/day oral, week 2
  Drinking water intake, Mean: 7.06
[8]; 2 mg/kg/day oral, week 3
  Drinking water intake, Mean: 7.69
[8]; 2 mg/kg/day oral, week 4
  Drinking water intake, Mean: 7.69
[8]; 2 mg/kg/day oral, week 5
  Drinking water intake, Mean: 7.10
[8]; 2 mg/kg/day oral, week 6
  Drinking water intake, Mean: 7.35
[8]; 2 mg/kg/day oral, week 7
  Drinking water intake, Mean: 7.19
[8]; 2 mg/kg/day oral, week 8
  Drinking water intake, Mean: 7.83
[8]; 2 mg/kg/day oral, week 9
  Drinking water intake, Mean: 7.45
[8]; 2 mg/kg/day oral, week 10
  Drinking water intake, Mean: 7.19

## O=C(O)c1cc(=O)c2c(OCC(O)COc3cccc4oc(C(=O)O)cc(=O)c34)cccc2o1 [OC-101, cromolyn, reference compound]
[1]; 50 mg/kg/day oral
  Indoxyl sulfate, Mean: 2.0 µg/mL
[2]; 50 mg/kg/day oral, week 0
  Feed intake, Mean: 6.23
[2]; 50 mg/kg/day oral, week 1
  Feed intake, Mean: 5.98
[2]; 50 mg/kg/day oral, week 2
  Feed intake, Mean: 6.35
[2]; 50 mg/kg/day oral, week 3
  Feed intake, Mean: 5.47
[2]; 50 mg/kg/day oral, week 4
  Feed intake, Mean: 4.28
[2]; 50 mg/kg/day oral, week 5
  Feed intake, Mean: 4.51
[2]; 50 mg/kg/day oral, week 6
  Feed intake, Mean: 4.29
[2]; 50 mg/kg/day oral, week 7
  Feed intake, Mean: 4.41
[2]; 50 mg/kg/day oral, week 8
  Feed intake, Mean: 4.37
[2]; 50 mg/kg/day oral, week 9
  Feed intake, Mean: 4.51
[2]; 50 mg/kg/day oral, week 10
  Feed intake, Mean: 4.28
[3]; G6/G7, 50 mg/kg oral
  Kidney: Medullar apoptosis: 0
  Kidney: Medullar mineralization: 1
  Kidney: NHL: 8
  Kidney: bowman's capsule hyperplasia: 1
  Kidney: pappillary mineralization: 0
  Liver: Apoptosis: 2
  Liver: Cytoplasmic glycogen: 0
  Liver: Eosinophlic focus of cellular alteration: 1
  Liver: Mononuclear cell infiltrate: 3
  Liver: NHL: 5
  Pancrease: Apoptosis: 0
  Pancrease: NHL: 6
  Pancrease: islet degeneration: 2
  Pancrease: islet hypertrophy: 2
  Pancrease: islet, mononuclear cell infillitrate: 1
[4]; 50 mg/kg administered group
  HOMA-IR compared to disease control group: decreased statistically significantly
[4]; 50 mg/kg/day oral
  HOMA-IR, Mean: 8.8^#
  Insulin, Mean: 0.5 ng/mL
[5]; 50 mg/kg administered group
  GLU compared to disease control group: decreased statistically significantly
[5]; 50 mg/kg/day oral
  CRE, Mean: 0.1 mg/dL
  GLU, Mean: 282.6^# mg/dL
  T-CHO, Mean: 139.3 mg/dL
[6]; 50 mg/kg/day oral, week 0, 4 h fasting, in mg/dL (unit assumed)
  Blood glucose level, Mean: 300.9
[6]; 50 mg/kg/day oral, week 2, 4 h fasting, in mg/dL (unit assumed)
  Blood glucose level, Mean: 336.6
[6]; 50 mg/kg/day oral, week 4, 4 h fasting
  Blood glucose level, Mean: 271.1^#
[6]; 50 mg/kg/day oral, week 6, 4 h fasting
  Blood glucose level, Mean: 295.5^#
[6]; 50 mg/kg/day oral, week 8, 4 h fasting
  Blood glucose level, Mean: 259.9^#
[6]; 50 mg/kg/day oral, week 10, 4 h fasting
  Blood glucose level, Mean: 247.8^#
[7]; 50 mg/kg/day oral, week 0
  Body weight, Mean: 23.9 g
[7]; 50 mg/kg/day oral, week 1
  Body weight, Mean: 23.4 g
[7]; 50 mg/kg/day oral, week 2
  Body weight, Mean: 23.5 g
[7]; 50 mg/kg/day oral, week 3
  Body weight, Mean: 23.3 g
[7]; 50 mg/kg/day oral, week 4
  Body weight, Mean: 23.5 g
[7]; 50 mg/kg/day oral, week 5
  Body weight, Mean: 23.4 g
[7]; 50 mg/kg/day oral, week 6
  Body weight, Mean: 23.5 g
[7]; 50 mg/kg/day oral, week 7
  Body weight, Mean: 23.4 g
[7]; 50 mg/kg/day oral, week 8
  Body weight, Mean: 23.2 g
[7]; 50 mg/kg/day oral, week 10
  Body weight, Mean: 23 g
[8]; 50 mg/kg/day oral, week 0
  Drinking water intake, Mean: 6.78
[8]; 50 mg/kg/day oral, week 1
  Drinking water intake, Mean: 8.11
[8]; 50 mg/kg/day oral, week 2
  Drinking water intake, Mean: 7.68
[8]; 50 mg/kg/day oral, week 3
  Drinking water intake, Mean: 6.99
[8]; 50 mg/kg/day oral, week 4
  Drinking water intake, Mean: 7.23
[8]; 50 mg/kg/day oral, week 5
  Drinking water intake, Mean: 6.78
[8]; 50 mg/kg/day oral, week 6
  Drinking water intake, Mean: 7.80
[8]; 50 mg/kg/day oral, week 7
  Drinking water intake, Mean: 7.06
[8]; 50 mg/kg/day oral, week 8
  Drinking water intake, Mean: 7.17
[8]; 50 mg/kg/day oral, week 9
  Drinking water intake, Mean: 7.09
[8]; 50 mg/kg/day oral, week 10
  Drinking water intake, Mean: 6.76
